# Measurements as given in patent US9233111B2, “Pyrrolo pyrimidine derivatives” (NOVARTIS AG, priority 2011, dated 2016).
# How the values were obtained:
# [1] = target: full-length human recombinant BTK (Homo sapiens (Human), UniProt Q06187); experiment: Inhibition of Btk enzymatic activity (biochemical enzyme assay, Caliper); conditions: 30° C., 60 minutes
# Summary of the method: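 Reaction of 6.4 nM BTK (stock) with 4 μM FITC-peptide and 164 μM ATP (stock solution), 60 min at 30 °C in pH 7.5 HEPES with Mg2+/Mn2+. Phospho-peptide separated and quantified by microfluidic mobility shift after EDTA stop; IC50 from 8-point concentration–response.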
# Btk = Btk (Homo sapiens (Human), UniProt Q06187); experiment: Inhibition of cellular Btk activity: Btk-dependent FcG receptor-induced IL-8 secretion in differentiated THP1 cells; format: cell-based; conditions: IgG-stimulated IL-8 secretion, 24 hours
# Chain of Btk (Q06187 whole entry): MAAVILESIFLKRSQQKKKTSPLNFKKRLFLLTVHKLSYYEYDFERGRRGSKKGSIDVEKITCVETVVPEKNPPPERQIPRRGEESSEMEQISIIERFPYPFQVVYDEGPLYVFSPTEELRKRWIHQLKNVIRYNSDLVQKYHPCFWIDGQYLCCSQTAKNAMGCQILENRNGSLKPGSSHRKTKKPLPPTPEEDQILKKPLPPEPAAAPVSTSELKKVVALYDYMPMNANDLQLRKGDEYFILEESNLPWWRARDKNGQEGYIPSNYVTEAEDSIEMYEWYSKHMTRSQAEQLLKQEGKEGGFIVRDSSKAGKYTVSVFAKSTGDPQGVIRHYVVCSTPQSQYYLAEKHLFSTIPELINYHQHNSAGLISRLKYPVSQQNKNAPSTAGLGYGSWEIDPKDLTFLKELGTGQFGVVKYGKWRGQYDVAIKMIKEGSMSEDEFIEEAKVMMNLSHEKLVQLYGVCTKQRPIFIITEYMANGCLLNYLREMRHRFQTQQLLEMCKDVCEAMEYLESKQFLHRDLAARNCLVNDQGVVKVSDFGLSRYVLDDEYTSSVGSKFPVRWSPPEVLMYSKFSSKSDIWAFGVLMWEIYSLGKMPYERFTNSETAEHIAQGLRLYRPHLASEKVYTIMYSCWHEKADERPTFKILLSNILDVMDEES
# Experimental: Alternatively, the present compounds might also be assessed for their capacity to inhibit Btk-dependent FcG receptor-induced IL-8 secretion in human cells. The human myeloid leukemia THP1 cell line (ATCC TIB202) was grown in RPMI 1640 medium supplemented with 10% FCS and 15 nM 1, 25-dihydroxy Vitamin D3 during 4 days before use to induced myeloid differentiation. A sufficient number of tissue-culture grade 384-well plates was coated with human IgG of unknown specificity by incubating overnight at 4° C. with 40 μl/well of a 50 μg/ml IgG solution in PBS. On the day of the experiment, plates were washed 5 times with 80 μl water on a Molecular Devices Aquamax DW4 plate washer. Solutions of the test compounds in 90% DMSO were added to each well on a Hamilton Microlab Star liquid handling station to 40 μl/well tissue culture medium and the total DMSO concentration was adjusted to 0.1%. Differentiated THP1 cells were then added in 40 μl/well to reach a final density of 5'000 cells/well in 80 μl culture medium. After 24 hours, IL-8 secretion was measured in the supernatant by the IL-8 HTRF assay following the protocol of the vendor (CisBio international). Inhibition data were calculated by comparison to control cultures without IgG stimulus enzyme (100% inhibition) and without inhibitors (0% inhibition). The concentration of inhibitor required for 50% inhibition (IC50) was calculated from the inhibition in response to inhibitor concentrations.
# Chain of full-length human recombinant BTK (Q06187 whole entry): as above
structure (smiles),measurement,setting,value
"CN(C)C(=O)N1CC=C(c2cc3c(-c4ccc(F)c(NC(=O)N5CC(OC(C)(C)C)C5)c4)ncnc3[nH]2)CC1 [Example 62, 4-(4-{3-[(3-tert-Butoxy-azetidine-1-carbonyl)-amino]-4-fluoro-phenyl}-7H-pyrrolo[2,3-d]pyrimidin-6-yl)-3,6-dihydro-2H-pyridine-1-carboxylic acid dimethylamide]",IC50,[1],0.002 µM
same,IC50,Btk,0.071 µM
